# Results reported in paper PMC6273342, “Cytotoxic Alkaloids from the Stem of Xylopia laevigata” (Molecules, 2016).
# Where two headings read alike, the source gives them in different places.
# What was measured:
# [1] = system: HL-60 (human promyelocytic leukemia); test: Alamar Blue cytotoxicity assay, HL-60; type: cell-based; conditions: for IC50: Homo sapiens, HL-60, Alamar Blue, 72 h incubation, read-out: IC50 HL60
# Description: (§3) B16-F10, HepG2, K562 and HL-60 tumor cell lines were kindly donated by Hospital A.C. […] Cells were maintained in RPMI 1640 medium (Gibco-BRL, Gaithersburg, MD, USA) with 10% fetal bovine serum (Cultilab, Campinas, Brazil), 2 mM L-glutamine (Vetec Química Fina, Duque de Caxias, Brazil) and 50 μg/mL gentamycin (Novafarma, Anápolis, Brazil). Adherent cells were collected by treatment with 0.25% trypsin-EDTA solution (Gibco-BRL). All cell lines were cultured in flasks at 37 °C in 5% CO2 and sub-cultured every 3–4 days to maintain exponential growth. All cell lines were tested for mycoplasma using a Mycoplasma Stain Kit (Sigma-Aldrich, St. Louis, MO, USA) to confirm that the cells were free from contamination.
# (§4) Cell viability was quantified using the Alamar Blue assay, according to Ahmed et al. [23]. Cells were placed in 96-well plates for all experiments (0.7 × 10^5 cells/mL for adherent cells or 0.3 × 10^6 cells/mL for suspended cells in 100 μL of medium). After 24 h, the alkaloids (in a range of eight different concentrations varying from 0.19 to 25 μg/mL) were dissolved in dimethyl sulfoxide (DMSO, Sigma-Aldrich Co.), and the solution was added to each well and incubated for 72 h. […] Negative controls received the vehicle that was used for diluting the alkaloids (0.5% DMSO). Four (for cell lines) or 24 h (for PBMCs) before the end of incubation, 20 μL of a stock solution (0.312 mg/mL) of the Alamar Blue (resazurin, Sigma-Aldrich Co.) was added to each well. The absorbance at 570 nm and 600 nm was measured using a SpectraMax 190 Microplate Reader (Molecular Devices, Sunnyvale, CA, USA), and the drug effect was quantified as the percentage of control absorbance.
# B16-F10 (mouse melanoma) = test: Alamar Blue cytotoxicity assay, B16-F10; type: cell-based; conditions: 72 h incubation
# Excerpt: (§1) Camargo, São Paulo, Brazil.
# [2] = system: peripheral blood mononuclear cells (PBMCs); test: Alamar Blue cytotoxicity assay, non-tumor PBMCs; type: cell-based; conditions: Homo sapiens, PBMC, 72 h incubation, ConA-stimulated PBMCs
# Description: Heparinized blood was collected from 20- to 35-year-old, healthy non-smokers who had not taken any drugs for at least 15 days prior to sampling, and the peripheral blood mononuclear cells (PBMCs) were isolated using a Ficoll density gradient in a Ficoll-Paque Plus (GE Healthcare Bio-Sciences AB, Uppsala, Sweden). PBMCs were washed and resuspended at a concentration of 0.3 × 10^6 cells/mL in RPMI 1640 medium with 20% fetal bovine serum, 2 mM L-glutamine and 50 μg/mL gentamycin at 37 °C with 5% CO2. Concanavalin A (ConA, Sigma-Aldrich Co.) was used as a mitogen to trigger cell division in T-lymphocytes. ConA (10 μg/mL) was added at the beginning of culture, and the cells were treated with the test compounds after 24 h. Cell viability was examined using a trypan blue exclusion assay for all experiments. Over 90% of the cells were viable at the beginning of the culture. The Research Ethics Committee of the Oswaldo Cruz Foundation (Salvador, Bahia, Brazil) approved the experimental protocol (#031019/2013). All participants signed a written informed consent to participate in the study.
# [3] = system: HepG2 (human hepatocellular carcinoma); test: Alamar Blue cytotoxicity assay, HepG2; type: cell-based; conditions: 72 h incubation
# Excerpt: as §1
# [4] = system: K562 (human chronic myelocytic leukemia); test: Alamar Blue cytotoxicity assay, K562; type: cell-based; conditions: 72 h incubation
# Excerpt: as §1
# [5] = system: tumor cell lines B16-F10, HepG2, K562 and HL-60; test: Alamar Blue cytotoxicity assay, summary over the tumor cell lines tested; conditions: 72 h, read-out: IC50 in at least one of the tumor cell lines tested
# Description: as §3, §4
# [6] = as above; conditions: mouse (B16-F10); human (HepG2, K562, HL-60)
# Description: as §3, §4
# HepG2 cells [7] = test: Annexin assay (phosphatidylserine externalization, flow cytometry), HepG2; type: cell-based, human; conditions: HepG2, 24 h
# Description: (§2) The following set of experiments was performed to investigate the mechanisms involved in the cytotoxic action of the alkaloids lanuginosine and (+)-xylopine. In all experiments, 2 mL of a HepG2 cell solution (0.7 × 10^5 cells/mL) was placed in 24-well plates and incubated overnight to allow the cells to adhere to the plate surface. The cells were then treated for 24 h with the alkaloids lanuginosine (10 and 20 μg/mL) and (+)-xylopine (5 and 10 μg/mL). The negative control was treated with the vehicle (0.2% DMSO) used for diluting the alkaloids. […] Cell viability was assessed for all experiments using a Trypan Blue exclusion assay.
# Phosphatidylserine externalization was analyzed by flow cytometry. A FITC annexin V apoptosis detection kit (BD Biosciences, San Jose, CA, USA) was used to determine cell viability (viable, early apoptotic, late apoptotic and necrotic cells). Cells were washed twice with saline and then resuspended in 100 μL of binding buffer with 5 μL of propidium iodide and 5 μL of FITC annexin V. The cells were gently mixed on a vortexer and incubated for 15 min at room temperature (20–25 °C) in the dark. Afterwards, 400 μL of binding buffer was added to each tube and the cells were analyzed by flow cytometry on a BD LSRFortessa cytometer using BD FACSDiva Software (BD Biosciences) and Flowjo Software 10 (Flowjo LCC, Ashland, OR, USA). Ten thousand events were evaluated per experiment and cellular debris was omitted from the analysis.
# HepG2 cells [8] = test: Acridine Orange/ethidium bromide staining, fluorescence microscopy, HepG2; type: cell-based, human; conditions: HepG2, 24 h, p < 0.05
# Description: as §2
# Cells were pelleted and resuspended in saline (25 μL). Then, 1 μL of aqueous solution of AO/EB (100 μg/mL, Sigma-Aldrich Co.) was added, and the cell viability changes were observed under a fluorescence microscope (Olympus BX41). In this assay, AO permeates all cells and makes the nuclei appear green. EB is only taken up by cells when the cytoplasmic membrane integrity is lost and stains the nucleus red. EB also dominates over AO. Thus, live cells have a normal green nucleus; early apoptotic cells have a bright green nucleus with condensed or fragmented chromatin; late apoptotic cells display condensed and fragmented orange chromatin; cells that have died from direct necrosis have a structurally normal orange nucleus. Three hundred cells were counted per sample and classified as viable, apoptotic or necrotic.
# HepG2 cells [9] = test: Morphological analysis with May-Grünwald-Giemsa staining, HepG2; type: cell-based, human; conditions: HepG2, 24 h; lanuginosine 10 and 20 μg/mL, (+)-xylopine 5 and 10 μg/mL
# Description: as §2
# To evaluate alterations in morphology, cells were cultured under a coverslip, fixed with methanol for 30 s and stained with May-Grünwald-Giemsa stain. Morphological changes were examined by light microscopy (Olympus BX41, Tokyo, Japan) using Image-Pro software (Media Cybernetics, Rockville, MD, USA).
# HepG2 cells [10] = test: Trypan Blue dye exclusion, HepG2; type: cell-based, human; conditions: HepG2, 24 h, lanuginosine 10 and 20 μg/mL, (+)-xylopine 5 and 10 μg/mL
# Description: as §2
# HepG2 cells [11] = test: Internucleosomal DNA fragmentation and cell cycle distribution (flow cytometry, propidium iodide), HepG2; type: cell-based, human; conditions: HepG2, 24 h, 1 µg/mL
# Description: as §2
# Cells were harvested in a lysis solution containing 0.1% triton X-100 (Sigma Chemical Co., St. Louis, MO, USA), 2 µg/mL propidium iodide (Sigma Chemical Co.), 0.1% sodium citrate and 100 µg/mL RNAse (Sigma Chemical Co.). Cell fluorescence was determined by flow cytometry on a BD LSRFortessa cytometer using BD FACSDiva Software (BD Biosciences) and Flowjo Software 10. Ten thousand events were evaluated per experiment and cellular debris was omitted from the analysis.
Structure (SMILES),IC50 [1] [µg/mL],IC50 ([1]; value in brackets) [µM],IC50 (B16-F10 (mouse melanoma)) [µg/mL],IC50 (B16-F10 (mouse melanoma); value in brackets) [µM],IC50 [2] [µg/mL],IC50 [3] [µg/mL],IC50 ([3]; value in brackets) [µM],IC50 [4] [µg/mL],IC50 ([4]; value in brackets) [µM],IC50 [5] [µg/mL],IC50 at 72 h [6] [µg/mL],further results
"COc1cc2c(cc1O)CCN1Cc3cc(OC)c(OC)cc3C[C@@H]21 [(+)-Discretine, (+)-discretine]",13,37.9,16.1,47.2,> 25,7.89,23.1,14.8,43.4,< 20,,
"COc1cc2c(cc1O)CC1c3c(cc(OC)c(OC)c3-2)CCN1C (single isomer, unassigned; (+)) [(+)-N-Methyllaurotetanine, (+)-N-methyllaurotetanine]",> 25,,> 25,,> 25,> 25,,> 25,,,> 25,
"COc1cc2c(cc1OC)-c1c(OC)c(OC)c(OC)c3c1C(C2)NCC3 (single isomer, unassigned; (+)) [(+)-Norpurpureine, (+)-norpurpureine]",10.1,27.2,21.1,56.6,17.9,> 25,,16.7,44.9,< 20,,IC50 ([2]; value in brackets): 48.2 µM
"COc1cc2c(cc1OC)-c1c(OC)c(OC)cc3c1[C@H](C2)N(C)CC3 [(+)-Glaucine, (+)-glaucine]",> 25,,> 25,,> 25,> 25,,> 25,,,> 25,
"COc1ccc2c(c1)C(=O)c1nccc3cc4c(c-2c13)OCO4 [Lanuginosine, lanuginosine]",7.81,25.5,8.46,27.6,24.5,3.89,12.7,6.61,21.6,< 4,,"phosphatidylserine exposure (HepG2 cells [7]; p < 0.05, without affecting the cell membrane integrity): significant increase in phosphatidylserine exposure; selectivity index (SI) ([1]; SI = IC50[PBMC]/IC50[HL-60]): 3.1; percentage of necrotic cells (AO/EB) (HepG2 cells [8]; at the higher concentration): significantly increased the percentage of necrotic cells; number of apoptotic cells (AO/EB) (HepG2 cells [8]; lanuginosine 10 and 20 μg/mL, (+)-xylopine 5 and 10 μg/mL): increased number of apoptotic cells; cell morphology (HepG2 cells [9]): morphology consistent with apoptosis, including chromatin condensation and fragmentation of the nuclei; number of non-viable cells (HepG2 cells [10]): without increasing the number of non-viable cells; number of viable cells (HepG2 cells [10]; p < 0.05): reduce the number of viable cells; IC50 ([2]; value in brackets): 80.1 µM"
"COc1cccc2c1C(=O)c1c(O)c3c(c(O)c1C2=O)C[C@@](O)(C(=O)CO)C[C@@H]3O[C@H]1C[C@H](N)[C@H](O)[C@H](C)O1 [Doxorubicin, doxorubicin, reference compound]",0.09,,0.08,0.15,2.47,0.08,0.15,0.15,0.28,,,"apoptotic characteristics in the cells (HepG2 cells [7]; doxorubicin 1 μg/mL, positive control): induced apoptotic characteristics; IC50 ([2]; value in brackets): 4.54 µM; Cell Cycle Phases (%) S (HepG2 cells [11]; NC 16.11 ± 1.89): 12.00 ± 1.43 %; Cell Cycle Phases (%) G2/M (HepG2 cells [11]; NC 19.93 ± 6.12): 61.94 ± 5.52 %"
"COc1cc2c(cc1O)C[C@@H]1NCCc3cc(OC)c(OC)c-2c31 [(+)-Laurotetanine, (+)-laurotetanine]",> 25,,> 25,,> 25,> 25,,> 25,,,> 25,
"COc1cc2c(cc1OC)CN1CCc3cc(OC)c(OC)cc3[C@@H]1C2 [(−)-Xylopinine, (−)-xylopinine]",> 25,,> 25,,> 25,> 25,,> 25,,,> 25,
"COc1cc2c(cc1O)CC1c3cc(OC)c(OC)cc3CCN1C2 (single isomer, unassigned; (-)) [(−)-Corytenchine, (−)-corytenchine]",> 25,,> 25,,> 25,> 25,,> 25,,,> 25,
"c1ccc2c(c1)C[C@H]1NCCc3cc4c(c-2c31)OCO4 [(+)-Anonaine, (+)-anonaine]",10.1,37.9,18.8,70.7,> 25,14,52.8,10.6,39.9,< 20,,
"COC1=C[C@]23CCN(C)[C@H](Cc4cc(OC)c(O)cc42)C3=CC1=O [(+)-Flavinantine, (+)-flavinantine]",> 25,,> 25,,> 25,> 25,,> 25,,,> 25,
"COc1ccc(CC2c3cc(O)c(OC)cc3CCN2C)cc1O (single isomer, unassigned; (+)) [(+)-Reticuline, (+)-reticuline]",23.8,72.1,> 25,,> 25,15.3,46.5,> 25,,< 20,,
"CN1CCc2cc3c(c4c2[C@H]1Cc1ccccc1-4)OCO3 [(−)-Roemerine, (−)-roemerine]",> 25,,> 25,,> 25,> 25,,> 25,,,> 25,
"COc1cc(O)c2c(c1)C[C@@H]1NCCc3cc4c(c-2c31)OCO4 [(+)-Calycinine, (+)-calycinine]",18.6,59.6,22.2,71,> 25,> 25,,> 25,,< 20,,
"COc1cc2c(cc1O)CCN1Cc3c(ccc(O)c3OC)CC21 (single isomer, unassigned; (+)) [(+)-Discretamine, (+)-discretamine]",10.1,30.8,18.8,57.3,> 25,14,42.8,10.6,32.4,< 20,,
"COc1cc2c(cc1OC)-c1c(OC)c(OC)cc3ccnc(c13)C2=O [Oxoglaucine, oxoglaucine]",5.9,16.8,19.1,54.4,10.2,> 25,,12.5,35.5,< 20,,IC50 ([2]; value in brackets): 29.1 µM
